Source: patent publication US20240343699A1, “DERIVATIVES OF SUBSTITUTED MORPHOLINES AND USES THEREOF” (Supernus Pharmaceuticals, Inc., priority 2023, published 2024)
“And” between values parts separate entries of the source, which are not always exact repeats. Equal entries are not always repeated. Where two headings read alike, the source gives them in different places.

What was measured:
[1] = Tissue binding in CD-1 mouse brain homogenate (equilibrium dialysis); settings: 2 μM
[2] = 80 mg/kg PO; for Tlast: COMPOUND C (parent) in plasma
[3] = Metabolic stability in human liver S9; format: in vitro ADME; settings: human liver S9, 1 μM
Procedure: (§1) Incubation Buffer (PBK): 50 mM potassium phosphate buffer was prepared from 1 M potassium phosphate buffer, pH 7.2. […] The dilution of […] was prepared by 90% methanol/10% DMSO, then 10 μM working solutions were prepared by diluting the 0.1 mM intermediates with 50 mM PBK. […] Prior to use, the stock solutions were brought to room temperature and thoroughly mixed. […] Cofactors Solutions: the mixture of cofactors solution was made at 10 mM of NADPH and 10 mM of UDPGA in PBK buffer.
(§2) The incubation was carried out in 96-well plates. The liver S9 working solutions were added to 96-well plates (80 μL/well) in duplicate. […] Reaction was initiated by adding cofactor mixture 10 μL/well. The plates were incubated at 37° C. in a water bath with shaking. […] The final organic solvent content in the incubation was ≤1%.
(§3) At specified time points, i.e., 5, 10, 20, 30 and 60 minutes, NCF60 (without adding NADPH (Nicotinamide-adenine dinucleotide phosphate, reduced form) and UDPGA (Uridine 5′-diphosphoglucuronic acid trisodium salt) replaced with PBK buffer reaction was stopped by adding three volumes of stop solution. The time zero (To) samples were prepared by adding three volumes of stop solution to liver S9 samples, followed by addition of test article or control, and cofactor mixture solution 10 μL/well.
(§4) Subsequently, 100 μL of supernatant.
(§5) Positive controls: 7-ethoxycoumarin and 7-hydroxycoumarin.

[4] = In vitro stability in human plasma; format: in vitro ADME; settings: human plasma, 2.0 μM
Procedure: Test Article Solutions: COMPOUND A, COMPOUND B and COMPOUND C stock solutions at 10 mM were prepared in dimethyl sulfoxide (DMSO). Further dilution with DMSO was made to prepare 2.0 mM. The working solutions of 50 μM was prepared with 20% MeOH/water. […] Prior to use, the stock solutions were brought to room temperature and thoroughly mixed and prepared same as described above.
Incubations were conducted in 96-well plate format. The time points defined for this study are 0, 5, 15, 30 and 60 minutes.
An appropriate volume of plasma from test species were added to a 96-deep well plate, and COMPOUND A, COMPOUND B and COMPOUND C working solution was spiked into the plasma in duplicate to achieve a final concentration of 2.0 μM. For positive controls, the rat plasma was spiked with enalapril, the dog plasma spiked with bisacodyl and the human plasma was spiked with propantheline. All spiked plasma sample plates were incubated in a water bath at 37° C. with shaking.
At the end of each time point, samples were immediately quenched with three volume of cold quenching solution.
A study was conducted to examine the plasma stability. Test Compounds: COMPOUND D, COMPOUND E, and Viloxazine. Positive controls: Enalapril and Propantheline.

[5] = Metabolic stability in dog liver S9; format: in vitro ADME, Beagle dog; settings: dog liver S9, 1 μM
Procedure: as §1, §2, §3, §4, §5

[6] = Metabolic stability in human intestinal homogenate; format: in vitro ADME; settings: human intestinal homogenate, 1 μM
Procedure: Incubation Buffer (PBK): 50 mM potassium phosphate buffer (PBK) was prepared from 1 M potassium phosphate buffer, pH 7.2. […] The dilution of 1 mM intermediate was prepared from 10 mM stock with 90% methanol/water, then […] working solutions were prepared by diluting the 1 mM intermediates with 50 mM PBK. […] Prior to use, the stock solutions were brought to room temperature and thoroughly mixed. […] Cofactors Solutions: the cofactor solution was made at 10 mM of NADPH (nicotinamide-adenine dinucleotide phosphate, reduced form) in 50 mM PBK buffer.
The incubation was carried out in 96-well plates. The intestinal homogenate mixture solution was added to 96-well plates (80 μL/well) in duplicate. […] Reaction was initiated by adding cofactor solution at 10 µL/well. The plates were incubated at 37° C. in a water bath with shaking. […] The final organic solvent content in the incubation was ≤1%.
At specified time points, i.e., 5, 10, 20, 30 and 60 minutes, NCF60 (no cofactor at 60 min, without adding NADPH replaced with 50 mM PBK buffer) reaction was stopped by adding three volumes of stop solution. The time zero (To) samples were prepared by adding three volumes of stop solution to intestinal homogenate samples, followed by addition of test article or control, and cofactor solution 10 μL/well.
Subsequently, 100 μL of supernatant was removed from each well, diluted with 100 μL pure water and analyzed by LC/MS/MS.
A study was conducted to examine the metabolic stability. […] Positive controls: 7-hydroxycoumarin and Testosterone.

[7] = Protein binding in CD-1 mouse plasma (equilibrium dialysis); settings: dialysis conditions; no binding reported
[8] = mouse brain homogenate, 4 hr dialysis (COMPOUND A 1 hr)

## CCOc1ccccc1OC[C@@H]1CN(C(=O)OC(OC(=O)[C@H](N)C(C)C)C(C)C)CCO1 (stereo partly drawn) [COMPOUND C]
[1]; dialysis conditions
  stability in mouse brain homogenate: unstable
[1]; mouse brain homogenate, 4 hr
  % Unbound Experimental: 20.9%
[1]; [8]
  Analyte Peak area/IS Peak area CD (brain homogenate side): 0.002 and 0.003
  Analyte Peak area/IS Peak area CR (buffer side): 0.001
[1]; mouse brain homogenate, time zero
  Analyte Peak area/IS Peak area Co (time zero): 0.036 and 0.037 and 0.041
[2]; beagle dogs
  Clinical observation (tolerability): well tolerated
[2]; LLOQ 3.0 ng/mL
  plasma concentration of the analog itself: well above LLOQ
[2]; female beagle dogs
  Tlast: 16.0 h
[2]; male beagle dogs
  Tlast: 16.0 h
[3]; 0 min
  % Remaining: 100%
  Analyte Peak area/IS Peak area Mean × 100 (n = 2): 10.6
[3]; 5 min
  % Remaining: 7.7%
  Analyte Peak area/IS Peak area Mean × 100 (n = 2): 0.808
[3]; 10 min
  % Remaining: 4.2%
  Analyte Peak area/IS Peak area Mean × 100 (n = 2): 0.446
[3]; 20 min
  % Remaining: 2.8%
  Analyte Peak area/IS Peak area Mean × 100 (n = 2): 0.297
[3]; 30 min
  % Remaining: 1.5%
  Analyte Peak area/IS Peak area Mean × 100 (n = 2): 0.160
[3]; 60 min
  % Remaining: 0.19% and 0.2%
  Analyte Peak area/IS Peak area Mean × 100 (n = 2): 0.020
[3]; NCF60 (no cofactors, 60 min)
  % Remaining: 0.6%
  Analyte Peak area/IS Peak area Mean × 100 (n = 2): 0.061
[3]; pH 7.2
  half-life at 1 μM: 8.12 min
[3]; pH 7.2, read-out: CLint(LS9)
  microsomal CLint at 1 μM: 171 µL/min/mg
[4]
  half-life at 2 μM: > 187 min
[4]; 0 min
  % Remaining: 100%
  Analyte Peak area/IS Peak area Mean (N = 2): 1.99
[4]; 5 min
  % Remaining: 92.3%
  Analyte Peak area/IS Peak area Mean (N = 2): 1.84
[4]; 15 min
  % Remaining: 88.3%
  Analyte Peak area/IS Peak area Mean (N = 2): 1.76
[4]; 30 min
  % Remaining: 86.1%
  Analyte Peak area/IS Peak area Mean (N = 2): 1.71
[4]; 60 min
  % Remaining: 84.4%
  Analyte Peak area/IS Peak area Mean (N = 2): 1.68
[5]; Beagle, pH 7.2
  half-life at 1 μM: 12 min
[5]; Beagle, pH 7.2, read-out: CLint(LS9)
  microsomal CLint at 1 μM: 115 µL/min/mg
[5]; 0 min
  % Remaining: 100%
  Analyte Peak area/IS Peak area Mean × 100 (n = 2): 8.27
[5]; 5 min
  % Remaining: 17%
  Analyte Peak area/IS Peak area Mean × 100 (n = 2): 1.44
[5]; 10 min
  % Remaining: 12%
  Analyte Peak area/IS Peak area Mean × 100 (n = 2): 0.962
[5]; 20 min
  % Remaining: 8.7%
  Analyte Peak area/IS Peak area Mean × 100 (n = 2): 0.720
[5]; 30 min
  % Remaining: 6.1%
  Analyte Peak area/IS Peak area Mean × 100 (n = 2): 0.501
[5]; 60 min
  % Remaining: 1.41% and 1.4%
  Analyte Peak area/IS Peak area Mean × 100 (n = 2): 0.116
[5]; NCF60 (no cofactors, 60 min)
  % Remaining: 5.1%
  Analyte Peak area/IS Peak area Mean × 100 (n = 2): 0.418
[6]; 0 min
  % Remaining: 100%
  Analyte Peak area/IS Peak area Mean (n = 2): 0.286
[6]; 5 min
  % Remaining: 4.4%
  Analyte Peak area/IS Peak area Mean (n = 2): 0.013
[6]; 10 min
  % Remaining: 3.0%
  Analyte Peak area/IS Peak area Mean (n = 2): 0.009
[6]; 20 min
  % Remaining: 1.3%
  Analyte Peak area/IS Peak area Mean (n = 2): 0.004
[6]; 30 min
  % Remaining: 0.67%
  Analyte Peak area/IS Peak area Mean (n = 2): 0.002
[6]; 60 min
  % Remaining: 0.08%
  Analyte Peak area/IS Peak area Mean (n = 2): 0.000
[6]; NCF60 (no cofactor at 60 min)
  % Remaining: 0.12%
  Analyte Peak area/IS Peak area Mean (n = 2): 0.000
[6]; pH 7.2
  half-life at 1 μM: 7.2 min
[6]; pH 7.2, read-out: CLint(HIH)
  microsomal CLint at 1 μM: 192 µL/min/mg
[7]
  stability in the mouse plasma: instability
